The results in this text go back to US20260001871A1, “TRIAZOLE DERIVATIVES AS MODULATORS OF MAS-RELATED G-PROTEIN RECEPTOR D” (ESCIENT PHARMACEUTICALS, INC., priority 2022, published 2026).

For this test, the target named is human MRGPRD (Homo sapiens, UniProt Q8TDS7). The test can be described thus: MRGPRD antagonist activity, IP-One HTRF assay in CHO cells stably expressing human MRGPRD (versus 100 μM β-Alanine agonist). It is filed as cell-based. The procedure, abridged:
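CHO cells stably expressing human MRGPRD, plated overnight at 37 °C, were treated with antagonist plus agonist in Tris-HCl/NaCl/LiCl buffer pH 8, incubated 1 h at 37 °C then 1 h at room temperature. IP-1 accumulation read by HTRF; IC50 and percent antagonism of maximum efficacy averaged, SEM reported.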
In general terms: In TR-FRET formats the signal depends on donor and acceptor labels being close together.

Sequence of human MRGPRD (Q8TDS7 whole entry): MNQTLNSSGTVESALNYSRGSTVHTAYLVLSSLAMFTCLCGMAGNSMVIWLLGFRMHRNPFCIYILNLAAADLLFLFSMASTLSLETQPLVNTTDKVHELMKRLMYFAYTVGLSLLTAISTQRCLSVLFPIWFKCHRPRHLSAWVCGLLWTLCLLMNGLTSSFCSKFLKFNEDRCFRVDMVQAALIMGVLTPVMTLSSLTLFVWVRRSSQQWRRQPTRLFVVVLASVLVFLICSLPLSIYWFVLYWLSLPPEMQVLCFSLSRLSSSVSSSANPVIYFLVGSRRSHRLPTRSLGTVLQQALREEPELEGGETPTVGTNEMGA

`CCc1ccc(C2(NC(=O)c3nnn(-c4ccc(-c5c(C)nn(-c6ccccc6)c5C)cc4)c3C3CC3)CC2)cn1` [Compound 9-20]: the 50% inhibitory concentration (IC50) fell in the range of 100 to 500 nM.

Turning to `CCn1nc(C)c(-c2ccc(-n3nnc(C(=O)NCc4ccc(C(C)C)nc4)c3C3CC3)cc2)c1C` [Compound 9-21], the IC50 was 100 to 500 nM.

`Cc1ccc(C2(NC(=O)c3nnn(-c4ccc(-c5ccc(C#N)cc5C)cc4)c3C3CC3)CC2)cn1` [Compound 9-22] showed an IC50 of 100 to 500 nM.

`CCn1nc(C)c(-c2ccc(-n3nnc(C(=O)NCc4cnccc4C)c3C3CC3)cc2)c1C` [Compound 9-23] came in with an IC50 of 100 to 500 nM.

On to `COc1ccc(C2(NC(=O)c3nnn(-c4ccc(-c5ccc(C#N)cc5C)cc4)c3C3CC3)CC2)cn1` [Compound 9-24], for which the IC50 fell in the range of 100 to 500 nM.

Molecule `CCn1nc(C)c(-c2ccc(-n3nnc(C(=O)NCc4cccnc4)c3C3CC3)cc2)c1C` [Compound 9-25] showed an IC50 of 100 to 500 nM.

Turning to `Cc1ccncc1CNC(=O)c1nnn(-c2ccc(-c3c(C)nn(-c4ccccc4)c3C)cc2)c1C1CC1` [Compound 9-26], the IC50 fell in the range of 500 to 1000 nM.

Molecule `Cc1nn(-c2ccccc2)c(C)c1-c1ccc(-n2nnc(C(=O)Nc3ccc(NS(C)(=O)=O)cc3)c2C2CC2)cc1` [Compound 9-27] yielded an IC50 of 500 to 1000 nM.

In the case of `CCn1nc(C)c(-c2ccc(-n3nnc(C(=O)Nc4ccc(NS(C)(=O)=O)cc4)c3C3CC3)cc2)c1C` [Compound 9-28], the IC50 was 500 to 1000 nM.

Turning to `Cc1nn(-c2ccccc2)c(C)c1-c1ccc(-n2nnc(C(=O)N3Cc4cnn(C)c4C3)c2C2CC2)cc1` [Compound 9-29], the IC50 was 500 to 1000 nM.

In turn, `Cc1ccc(NC(=O)c2nnn(-c3ccc(-c4ccc(C#N)cc4C)cc3)c2C2CC2)cn1` [Compound 9-30] yielded a half-inhibitory concentration (IC50) of 1000 to 3000 nM.

With `CCc1ccc(C2(NC(=O)c3nnn(-c4ccc(-c5c(C)nn(CC)c5C)cc4)c3C3CC3)CC2)cn1` [Compound 9-31], the IC50 was in the range of 1000 to 3000 nM.

Take `CCn1nc(C)c(-c2ccc(-n3nnc(C(=O)N4Cc5cnn(C)c5C4)c3C3CC3)cc2)c1C` [Compound 9-32]: the IC50 was in the range of 1000 to 3000 nM.

`CCc1ccc(C2(NC(=O)c3nnn(-c4ccc(-c5c(C)nn(C)c5C)cc4)c3C3CC3)CC2)cn1` [Compound 9-33] came in with an IC50 of 1000 to 3000 nM.

Consider `Cc1nn(C)c(C)c1-c1ccc(-n2nnc(C(=O)Nc3ccc(NS(C)(=O)=O)cc3)c2C2CC2)cc1` [Compound 9-34], for which the 50% inhibitory concentration (IC50) was in the range of 1000 to 3000 nM.

`COc1ccc(C2(NC(=O)c3nnn(-c4ccc(-c5ccc(C#N)c(F)c5)cc4)c3C3CC3)CC2)cn1` [Compound 9-35]: the 50% inhibitory concentration (IC50) is 100 to 500 nM.

In the case of `N#Cc1ccc(-c2ccc(-n3nnc(C(=O)Nc4ccnc(F)c4)c3C3CC3)cc2)cc1F` [Compound 9-36], the IC50 is 100 to 500 nM.

The molecule `N#Cc1ccc(-c2ccc(-n3nnc(C(=O)Nc4cc(F)nc(F)c4)c3C3CC3)cc2)cc1F` [Compound 9-37] returned a half-inhibitory concentration (IC50) of 500 to 1000 nM.

As to `Cc1cc(NC(=O)c2nnn(-c3ccc(-c4c(C)nn(-c5ccccc5)c4C)cc3)c2C2CC2)ccn1` [Compound 10-1, 5-cyclopropyl-1-(4-(3,5-dimethyl-1-phenyl-1H-pyrazol-4-yl)phenyl)-N-(2-methylpyridin-4-yl)-1H-1,2,3-triazole-4-carboxamide], the IC50 was < 100 nM.

`Cc1nn2cccnc2c1-c1ccc(-n2nnc(C(=O)NC3(c4cncc(Cl)c4)CC3)c2C2CC2)cc1` [Compound 10-2]: the half-inhibitory concentration (IC50) is > 3000 nM.

As for `Cc1cc(NC(=O)c2nnn(-c3ccc(-c4c(C)nn5cccnc45)cc3)c2C2CC2)ccn1` [Compound 10-3], the half-inhibitory concentration (IC50) was < 100 nM.

`CCc1cc(NC(=O)c2nnn(-c3ccc(-c4c(C)nn5cccnc45)cc3)c2C2CC2)ccn1` [Compound 10-4] came in with an IC50 of 100 to 500 nM.

For `Cc1ccc(CNC(=O)c2nnn(-c3ccc(-c4c(C)nn5cccnc45)cc3)c2C2CC2)cn1` [Compound 10-5], the IC50 lay in the range of 100 to 500 nM.

Consider `CCn1cc(CNC(=O)c2nnn(-c3ccc(-c4c(C)nn5cccnc45)cc3)c2C2CC2)cn1` [Compound 10-6], for which the half-maximal inhibitory concentration (IC50) fell in the range of 100 to 500 nM.

As for `Cc1nn2cccnc2c1-c1ccc(-n2nnc(C(=O)Nc3ccc(NS(C)(=O)=O)cc3)c2C2CC2)cc1` [Compound 10-7], the IC50 was 1000 to 3000 nM.

`CCc1ccc(C2(NC(=O)c3nnn(-c4ccc(-c5c(C)nn6cccnc56)cc4)c3C3CC3)CC2)cn1` [Compound 10-8] yielded an IC50 of 1000 to 3000 nM.

Turning to `CCn1cc(CNC(=O)c2nnn(-c3ccc(-c4c(C)nn(-c5ccccc5)c4C)cc3)c2C2CC2)cn1` [Compound 10-9], the IC50 is < 100 nM.

As to `Cc1cc(NC(=O)c2nnn(-c3ccc(-c4c(C)nn(C)c4C)cc3)c2C(C)C)ccn1` [Compound 10-10], the half-inhibitory concentration (IC50) was < 100 nM.

Take `CCn1cc(CNC(=O)c2nnn(-c3ccc(-c4c(C)nn5ccccc45)cc3)c2C(C)C)cn1` [Compound 10-11]: the IC50 is < 100 nM.

`Cc1cc(NC(=O)c2nnn(-c3ccc(-c4c(C)nn5ccccc45)cc3)c2C(C)C)ccn1` [Compound 10-12] came in with a half-maximal inhibitory concentration (IC50) of 100 to 500 nM.

`Cc1nn(C)c(C)c1-c1ccc(-n2nnc(C(=O)Nc3ccncc3)c2C2CC2)nc1` [Compound 11-1, 5-cyclopropyl-N-(pyridin-4-yl)-1-(5-(1,3,5-trimethyl-1H-pyrazol-4-yl)pyridin-2-yl)-1H-1,2,3-triazole-4-carboxamide] yielded an IC50 of 100 to 500 nM.

`Cc1cc(NC(=O)c2nnn(-c3ccc(-c4ccc(C#N)cc4)cn3)c2C2CC2)ccn1` [Compound 11-2] displayed a half-inhibitory concentration (IC50) of 100 to 500 nM.

`Cc1cc(NC(=O)c2nnn(C3CC=C(c4c(C)nn(C)c4C)CC3)c2C2CC2)ccn1` (centres unmarked) [Compound 12-1, 5-cyclopropyl-N-(2-methylpyridin-4-yl)-1-(4-(1,3,5-trimethyl-1H-pyrazol-4-yl)cyclohex-3-en-1-yl)-1H-1,2,3-triazole-4-carboxamide] yielded a 50% inhibitory concentration (IC50) of 100 to 500 nM.

With `Cc1n[nH]c2ncnc(NC(=O)c3nnn(C4CC=C(c5ccc(C#N)cc5)CC4)c3C3CC3)c12` (centres unmarked) [Compound 12-2], the IC50 is 100 to 500 nM.

`Cc1cc(NC(=O)c2nnn(C3CC=C(c4c(C)nn(-c5ccccc5)c4C)CC3)c2C2CC2)ccn1` (centres unmarked) [Compound 12-3] showed an IC50 of 500 to 1000 nM.

In the case of `Cc1cc(NC(=O)c2nnn(C3CC=C(c4ccc(F)cc4)CC3)c2C2CC2)ccn1` (centres unmarked) [Compound 12-4], the concentration for half-maximal inhibition (IC50) lay within 500 to 1000 nM.

`Cc1cc(NC(=O)c2nnn(C3CC=C(c4c(C)nn5ccccc45)CC3)c2C2CC2)ccn1` (centres unmarked) [Compound 12-5] came in with an IC50 of 500 to 1000 nM.

`Cn1cc(C2(NC(=O)c3nnn(C4CC=C(c5ccc(C#N)cc5)CC4)c3C3CC3)CC2)cn1` (centres unmarked) [Compound 12-6] returned an IC50 of 1000 to 3000 nM.

`Cc1cc(NC(=O)c2nnn(C3CC=C(c4ccc(CC#N)cc4)CC3)c2C2CC2)ccn1` (centres unmarked) [Compound 12-7] gave an IC50 of 1000 to 3000 nM.

`CCn1cc(CNC(=O)c2nnn(C3CC=C(c4ccc(C#N)cc4)CC3)c2C2CC2)cn1` (centres unmarked) [Compound 12-8] registered a concentration for half-maximal inhibition (IC50) of 1000 to 3000 nM.

Consider `N#Cc1ccc(C2=CCC(n3nnc(C(=O)NC4(c5cccnc5)CC4)c3C3CC3)CC2)cc1` (centres unmarked) [Compound 12-9], for which the IC50 lay within 1000 to 3000 nM.

The molecule `Cc1cc(NC(=O)c2nnn(C3CCC(c4c(C)nn(C)c4C)CC3)c2C2CC2)ccn1` (centres unmarked) [Compound 13-1, 5-cyclopropyl-N-(2-methylpyridin-4-yl)-1-(4-(1,3,5-trimethyl-1H-pyrazol-4-yl)cyclohexyl)-1H-1,2,3-triazole-4-carboxamide] registered an IC50 of 1000 to 3000 nM.

For `COc1ccccc1CCNC(=O)c1nnn(-c2ccc(-c3ccccc3)cc2)c1C1CC1` [Compound 14-1], the half-inhibitory concentration (IC50) is > 3000 nM.

`CC(C)(C)n1cc(NC(=O)c2nnn(-c3ccc(-c4ccccc4)cc3)c2C2CC2)cn1` [Compound 14-2]: the concentration for half-maximal inhibition (IC50) was > 3000 nM.

On to `CC(NC(=O)c1nnn(-c2ccc(-c3ccccc3)cc2)c1C1CC1)c1nccs1` (centres unmarked) [Compound 14-3], for which the IC50 was > 3000 nM.

Consider `Cc1nn(C(=O)c2nnn(-c3ccc(-c4ccccc4)cc3)c2C2CC2)c2cccc(N)c12` [Compound 14-4], for which the IC50 was > 3000 nM.

For `Cc1[nH]ncc1CNC(=O)c1nnn(-c2ccc(-c3ccccc3)cc2)c1C1CC1` [Compound 14-5], the IC50 is > 3000 nM.

As to `O=C(NC1(c2ccccc2)CCC1)c1nnn(-c2ccc(-c3ccccc3)cc2)c1C1CC1` [Compound 14-6], the IC50 is > 3000 nM.

For the molecule `O=C(NCC1CCCO1)c1nnn(-c2ccc(-c3ccccc3)cc2)c1C1CC1` (centres unmarked) [Compound 14-7], the IC50 was > 3000 nM.

Consider `CC(NC(=O)c1nnn(-c2ccc(-c3ccccc3)cc2)c1C1CC1)c1cncnc1` (centres unmarked) [Compound 14-8], for which the IC50 is > 3000 nM.

Regarding `O=C(NCCc1ncn[nH]1)c1nnn(-c2ccc(-c3ccccc3)cc2)c1C1CC1` [Compound 14-9], the IC50 is > 3000 nM.

For the molecule `Cn1ncc(NC(=O)c2nnn(-c3ccc(-c4ccccc4)cc3)c2C2CC2)c1Cl` [Compound 14-10], the IC50 is > 3000 nM.

For the molecule `O=C(NCc1cscn1)c1nnn(-c2ccc(-c3ccccc3)cc2)c1C1CC1` [Compound 14-11], the IC50 is > 3000 nM.

As for `CCn1nc(C)cc1NC(=O)c1nnn(-c2ccc(-c3ccccc3)cc2)c1C1CC1` [Compound 14-12], the IC50 is > 3000 nM.

Consider `Cc1nc(C(C)NC(=O)c2nnn(-c3ccc(-c4ccccc4)cc3)c2C2CC2)cs1` (centres unmarked) [Compound 14-13], for which the IC50 was > 3000 nM.

Take `Cc1nn(C)c2ncnc(NC(=O)c3nnn(-c4ccc(-c5ccccc5)cc4)c3C3CC3)c12` [Compound 14-14]: the IC50 is > 3000 nM.

`CCc1cc(NC(=O)c2nnn(-c3ccc(-c4ccccc4)cc3)c2C2CC2)ccn1` [Compound 14-15, 1-([1,1′-biphenyl]-4-yl)-5-cyclopropyl-N-(2-ethylpyridin-4-yl)-1H-1,2,3-triazole-4-carboxamide]: the IC50 was 100 to 500 nM.

With `CC(C)c1cc(NC(=O)c2nnn(-c3ccc(-c4ccccc4)cc3)c2C2CC2)ccn1` [Compound 14-16, 1-([1,1′-biphenyl]-4-yl)-5-cyclopropyl-N-(2-isopropylpyridin-4-yl)-1H-1,2,3-triazole-4-carboxamide], the IC50 is 100 to 500 nM.

In the case of `Cn1ncc2c1CN(C(=O)c1nnn(-c3ccc(-c4ccccc4)cc3)c1C1CC1)C2` [Compound 14-17], the IC50 lay in the range of 100 to 500 nM.

For orientation: IC50 means the concentration that inhibits the measured activity by half. Lower therefore signals greater potency.
